# Experimental data as given in patent US8609671B2, “Method of inhibiting hepatic fibrosis as a result of liver replacement or repair using A2B adenosine receptor antagonists” (Gilead Sciences, Inc., priority 2006, dated 2013).
# Entries after “also recorded” stand apart in the source; their conditions may differ.
# What was measured:
# HHSCs [1] = assay: Measurement of cAMP accumulation in HHSCs; type: cell-based, human; conditions: for effect of agonist on cellular cAMP accumulation: with rolipram 50 μM, 15 min, CGS-21680 (=10 μM); for effect on forskolin-induced cellular cAMP accumulation: agonist 1 μM, forskolin 10 μM
# Description: (§1) Primary cultured normal human hepatic stellate Cells (HHSCs) were obtained from ScienCell Research Laboratories (San Diego, Calif.) and cultured using stellate cell growth medium (ScienCell Research Laboratories). HHSCs were routinely grown in a humidified incubator with 5% CO2 at 37° C. and reseeded when they reached about 80-90% confluency. Each re-seeding is called a passage. Cells from passages 2 to 5 were used in the following studies.
# Cells were harvested using 0.0025% trypsin and 2 mM EDTA in PBS, washed and resuspended in phenol-free DMEM to a concentration of 1×10^6 cells/ml, and then incubated with 1 U/ml of ADA for 30 min at room temperature. Cells were then treated with AdoR agonists, antagonists, and forskolin in the presence of 50 μM of the phosphodiesterase IV inhibitor, rolipram. After incubating for 15 min at 37° C., cells were lysed and cAMP concentrations were determined using cAMP-Screen Direct™ System (Applied Biosystems) according to the manufacturer's instructions.
# HHSCs [2] = assay: mRNA levels of α-smooth muscle actin and α-1 pro-collagen in HHSCs (real-time RT-PCR); type: cell-based, human; conditions: NECA 10 μM, 1 h
# Description: HHSCs were seeded into 12-well tissue culture plates at a density of 1×10^5 cells/well in stellate cell growth medium and allowed to adhere overnight and reach ˜90% confluency. Cells were washed twice in HEPES buffered saline, and cultured in DMEM containing various agonists or antagonists of AdoRs for 1 or 24 h. Total RNA was extracted from HHSCs using the Stratagene Absolutely RNA™ RT-PCR Miniprep Kit followed by DNase treatment to eliminate potential genomic DNA contamination. Real-time RT-RCR for adenosine receptors was performed as previously described in Zhong et al. (2004) Am J Respir Cell Mol Biol; 30(1):118-125. The specific primers for α-smooth muscle actin used were: while the primers for α-1 pro-collagen were: and each of these primers were designed using Primer Express 2.0 (Applied Biosystems) following the recommended guidelines based on sequences from Genbank. At the end of the PCR cycle, a dissociation curve was generated to ensure the amplification of a single product, and the threshold cycle time (Ct value) for each gene was determined. Relative mRNA levels were calculated based on the Ct values, normalized to β-actin in the same sample, and presented as percentages of β-actin mRNA. Measurement of cAMP Accumulation
# HHSCs [3] = assay: Collagen production by HHSCs (Sircol collagen assay); type: cell-based, human; conditions: 24 h
# Description: (§2) HHSCs were seeded into 12-well tissue culture plates at a density of 1×10^5 cells/well in stellate cell growth medium and allowed to adhere overnight and reach ˜90% confluency. Cells were washed twice in HEPES buffered saline, and cultured in DMEM containing various agonists or antagonists of AdoRs for 1 or 24 h.
# (§3) The concentration of IL-6 in the cell medium was determined using ELISA kits obtained from Biosource (Camarillo, Calif.) according to the manufacturer's instructions. The minimal detection levels of IL-6 with these kits were 2 pg/ml. The concentration of soluble collagen in the cell medium was measured using the Sircol collagen assay (Biocolor Ltd., Belfast N. Ireland) according to manufacture's instructions. The activity of AST in mouse plasma was determined using the Infinity™ AST assay (Thermo Electron Corporation, Waltham, Mass.)
# HHSCs [4] = assay: IL-6 release by HHSCs (ELISA); type: cell-based, human; set-up: maximal increase of IL-6 release over the basal level: concentration or dose not given beside the values
# Description: as §1, §2, §3
# [5] = target: T1, Human A3 adenosine receptor (Homo sapiens, UniProt P0DMS8); conditions: read-out: affinity for A3 receptor (Ki); cited from earlier work
# T1 construct: expressed in transfected cells; host or cells: CHO (CHO-A3), membrane preparation
# T1 sequence (P0DMS8 1-318): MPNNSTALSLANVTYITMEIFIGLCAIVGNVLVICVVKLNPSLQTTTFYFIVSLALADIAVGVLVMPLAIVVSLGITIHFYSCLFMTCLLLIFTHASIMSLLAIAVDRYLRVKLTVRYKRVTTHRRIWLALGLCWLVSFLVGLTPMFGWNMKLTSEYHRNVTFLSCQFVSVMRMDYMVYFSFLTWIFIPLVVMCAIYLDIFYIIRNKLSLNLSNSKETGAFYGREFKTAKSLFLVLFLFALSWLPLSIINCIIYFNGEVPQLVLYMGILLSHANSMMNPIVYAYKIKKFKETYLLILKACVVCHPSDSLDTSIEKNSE
# [6] = target: T2, Human A2A adenosine receptor (Homo sapiens, UniProt P29274); conditions: read-out: affinity for A2A receptor (Ki); cited from earlier work
# T2 construct: expressed in transfected cells; host or cells: HEK-293 (HEK-A2A), membrane preparation
# [7] = target: T3, Human A1 adenosine receptor (Homo sapiens, UniProt P30542); conditions: read-out: affinity for A1 receptor (Ki); cited from earlier work
# T3 sequence (P30542 1-326): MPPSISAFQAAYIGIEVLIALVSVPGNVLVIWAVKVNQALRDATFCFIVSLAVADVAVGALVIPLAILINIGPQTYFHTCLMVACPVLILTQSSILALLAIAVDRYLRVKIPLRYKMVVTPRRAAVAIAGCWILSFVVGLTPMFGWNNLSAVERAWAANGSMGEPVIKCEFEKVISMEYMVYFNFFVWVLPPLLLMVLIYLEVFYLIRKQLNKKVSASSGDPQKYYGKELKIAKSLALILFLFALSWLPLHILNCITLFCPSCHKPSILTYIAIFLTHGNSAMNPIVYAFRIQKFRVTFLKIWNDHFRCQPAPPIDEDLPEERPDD
# ADA^−/− mice = assay: Plasma AST levels in ADA-deficient mice; type: in vivo; conditions: 1 mg/kg per injection i.p. morning and evening for 17 days, vs vehicle
# Description: as §3
# Adenosine deaminase (ADA)-deficient mice were generated and genotyped as described in Blackburn et al. (1998), J Biol Chem, 273(9):5093-5100. Mice homozygous for the null Ada allele were designated ADA-deficient (ADA^−/−), while mice heterozygous for the null Ada allele were designated as ADA control mice (ADA^+). All mice were on a mixed 129sv/C57BL/6J background and all phenotypic comparisons were performed amongst littermates. Animal care was in accordance with institutional and NIH guidelines. Mice were housed in ventilated cages equipped with microisolator lids and maintained under strict containment protocols. No evidence of bacterial, parasitic, or fungal infection was found, and serologies on cage littermates were negative for 12 of the most common murine viruses. […]
# T2 sequence (P29274 whole entry): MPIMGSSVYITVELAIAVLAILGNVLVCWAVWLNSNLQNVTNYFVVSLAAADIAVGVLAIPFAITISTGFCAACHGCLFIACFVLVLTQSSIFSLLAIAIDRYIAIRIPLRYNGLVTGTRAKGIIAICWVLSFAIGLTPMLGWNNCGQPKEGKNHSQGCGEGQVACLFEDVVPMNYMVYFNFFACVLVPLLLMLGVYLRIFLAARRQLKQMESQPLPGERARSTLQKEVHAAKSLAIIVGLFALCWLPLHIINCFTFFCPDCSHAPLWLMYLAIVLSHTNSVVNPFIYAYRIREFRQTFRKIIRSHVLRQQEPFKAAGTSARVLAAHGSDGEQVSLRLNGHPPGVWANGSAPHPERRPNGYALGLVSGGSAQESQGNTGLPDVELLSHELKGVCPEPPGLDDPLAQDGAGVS
compound,measurement,setting,value
CCNC(=O)[C@H]1O[C@@H](n2cnc3c(N)nc(NCCc4ccc(CCC(=O)O)cc4)nc32)[C@H](O)[C@@H]1O [CGS-21680],effect of agonist on cellular cAMP accumulation,HHSCs [1],did not cause a significant increase
"OC[C@H]1O[C@@H](n2cnc3c(NC4CCCC4)ncnc32)[C@H](O)[C@@H]1O [CPA, N6-cyclopentyladenosine]",effect on forskolin-induced cellular cAMP accumulation,HHSCs [1],Lack of effect; also recorded: failed to inhibit
CNC(=O)[C@H]1O[C@@H](n2cnc3c(NCc4cccc(I)c4)ncnc32)[C@H](O)[C@@H]1O [IB-MECA],effect on forskolin-induced cellular cAMP accumulation,HHSCs [1],Lack of effect; also recorded: failed to inhibit
"CCNC(=O)[C@H]1O[C@@H](n2cnc3c(N)ncnc32)[C@H](O)[C@@H]1O [NECA, 5′-(N-ethylcarboxamido)-adenosine]",expression of α-1 pro-collagen mRNA,HHSCs [2],significantly increased
same,expression of α-smooth muscle actin mRNA,HHSCs [2],significantly increased
same,release of soluble collagen,HHSCs [3],increased; also recorded: significant increase
same,maximal increase of IL-6 release over the basal level,HHSCs [4],11.9±3.1 fold
same,effect on IL-6 release,HHSCs [4]; 24 h,increased IL-6 release in a concentration-dependent manner
same,increase of IL-6 release compared to vehicle-treated cells,"HHSCs [4]; NECA 100 μM, 24 h",11.9±3.1 fold
same,effect of agonist on cellular cAMP accumulation,HHSCs [1],increased cellular cAMP accumulation in a concentration-dependent manner
Nc1ncnc2c1ncn2[C@@H]1O[C@H](CO)[C@@H](O)[C@H]1O [adenosine],maximal increase of IL-6 release over the basal level,HHSCs [4],11.9±3.1 fold
same,effect on IL-6 release,HHSCs [4]; 24 h,increased IL-6 release in a concentration-dependent manner
"CCCn1c(=O)[nH]c2nc(-c3cnn(Cc4noc(-c5ccc(Cl)cc5)n4)c3)[nH]c2c1=O [compound (1), 8-(1-{[5-(4-chlorophenyl)(1,2,4-oxadiazol-3-yl)]methyl}pyrazol-4-yl)-1-propyl-1,3,7-trihydropurine-2,6-dione]",effect on NECA-induced collagen production,HHSCs [3]; NECA 10 μM,abolished
same,Ki,[5],> 5 µM
same,Ki,[6],> 5 µM
same,reduction of NECA-increased IL-6 release,HHSCs [4]; compound 1 μM together with NECA 10 μM,90.7±0.1%
same,effect on NECA-induced cellular cAMP accumulation,HHSCs [1]; antagonist 1 μM,significantly attenuated
same,Ki,[7],> 5 µM
"CCCn1c(=O)c2[nH]c(-c3cnn(Cc4cccc(C(F)(F)F)c4)c3)nc2n(CC)c1=O [compound (2), 3-ethyl-1-propyl-8-(1-{[3-(trifluoromethyl)phenyl]methyl}pyrazol-4-yl)-1,3,7-trihydropurine-2,6-dione]",plasma AST levels,ADA^−/− mice,significant reduction
